The results in this text go back to patent publication US10766908B2, “Calcium L-lactate frameworks as naturally degradable carriers” (priority 2017, dated 2020).

This data set in a line: Slow release of cis-1,3-dichloropropene under air flow, sample weight monitored by thermogravimetric instrument. The data set is classed as physicochemical. To be noted: air flow of 1.0 cm^3 min^−1, 25° C. As to the method: Here we present the use of MOF-1201 for this purpose Fumigant cis-1,3-dichloropropene has been chosen as an example. Static adsorption isotherm of cis-1,3-dichloropropene in MOF-1201 at 25° C. is shown in FIG. 3c, displaying a sharp uptake of 1.4 mmol g^−1 (13 wt %) in low partial pressure range (P/P0=0.1), attributed to adsorption within the micropores. […] In contrast, the cis-1,3-dichloropropene encapsulated in MOF-1201 released in a much slower manner, with 80% of the total (10.5 wt %) released in 100,000 min g^−1, corresponding to 100 times slower compared with liquid cis-1,3-dichloropropene under the same conditions.
Slow release experiments were carried out using the TA Q500 thermal analysis system under constant air flow rate of 1 cm^3 min ^−1.

For the compound `Cl/C=C\CCl` [liquid cis-1,3-dichloropropene, cis-1,3-dichloropropene], the “time for 80% of the total weight to be released/evaporated” value is recorded as ≤ 1,000 min g^−1.
